Earlier results in patent US6313179A, “Treatment of hyperproliferative skin disorders with C18 to C20 aliphatic alcohols” (Avanir Pharmaceuticals, priority 1998, dated 2001).

Details: oral ingestion; U.S. Pat. No. 3,031,376; cited from earlier work

Row | SMILES | physical performance of athletes
1 | CCCCCCCCCCCCCCCCCCCCCCCCCCO [n-hexacosanol] | improved physical performance of athletes
2 | CCCCCCCCCCCCCCCCCCCCCCCCCCCCO [n-octacosanol, reference compound] | improved physical performance of athletes
3 | CCCCCCCCCCCCCCCCCCCCCCCCO [n-tetracosanol] | improved physical performance of athletes
4 | CCCCCCCCCCCCCCCCCCCCCCCCCCCCCCO [triacontanol, reference compound] | improved physical performance of athletes
